Laboratory results reported in ChEMBL document CHEMBL6092194, “Development of membrane-targeting chalcone derivatives as antibacterial agents against multidrug-resistant bacteria” (Eur J Med Chem, 2024).

Assays:
Enterococcus faecalis = assay: Antibacterial activity against vancomycin susceptible Enterococcus faecalis ATCC29212 by broth microdilution assay; format: functional
Bacillus subtilis = assay: Antibacterial activity against penicillin-susceptible Bacillus subtilis ATCC9372 by broth microdilution assay; format: functional
Staphylococcus aureus [1] = assay: Antibacterial activity against penicillin-resistant Staphylococcus aureus ATCC31007 by broth microdilution assay; format: functional
[2] = system: Staphylococcus epidermidis; assay: Antibacterial activity against erythromycin-susceptible Staphylococcus epidermidis ATCC12228 by broth microdilution assay; format: functional
Staphylococcus aureus [3] = assay: Antibacterial activity against erythromycin susceptible Staphylococcus aureus ATCC25923 by broth microdilution assay; format: functional
[4] = Selectivity index, ratio of HC50 for hemolytic activity in red blood cells (unknown origin) to MIC for antibacterial activity against penicillin-resistant Staphylococcus aureus ATCC43300; format: toxicity, cell-based, RBC; conditions: read-out: Selectivity Index
Escherichia coli = assay: Antibacterial activity against penicillin-susceptible Escherichia coli ATCC25922 by broth microdilution method; format: functional
Staphylococcus aureus [5] = assay: Antibacterial activity against penicillin-resistant Staphylococcus aureus ATCC43300 by broth microdilution assay; format: functional
Klebsiella pneumoniae = assay: Antibacterial activity against Klebsiella pneumoniae ATCC10031 by broth microdilution assay; format: functional
[6] = Hemolytic activity in red blood cells (unknown origin); format: toxicity, cell-based, Erythrocyte
Pseudomonas aeruginosa = assay: Antibacterial activity against penicillin-susceptible Pseudomonas aeruginosa ATCC27853 by broth microdilution method; format: functional
Acinetobacter baumannii = assay: Antibacterial activity against Acinetobacter baumannii ATCC19606 by broth microdilution assay; format: functional

Compound | MIC (Enterococcus faecalis) [µg/mL] | MIC (Bacillus subtilis) [µg/mL] | MIC (Staphylococcus aureus [1]) [µg/mL] | MIC [2] [µg/mL] | MIC (Staphylococcus aureus [3]) [µg/mL] | selectivity ratio [4] | MIC (Escherichia coli) [µg/mL] | MIC (Staphylococcus aureus [5]) [µg/mL] | MIC (Klebsiella pneumoniae) [µg/mL] | HC50 [6] [µg/mL] | MIC (Pseudomonas aeruginosa) [µg/mL] | MIC (Acinetobacter baumannii) [µg/mL]
CCCCCCCCCCCCCC[N+](C)(C)CCCOc1ccc(/C=C/C(=O)c2ccc(OCCC[N+](C)(C)CCCCCCCCCCCCCC)cc2)cc1.[Br-].[Br-] | > 128 | > 128 | 64 | > 128 | 64 | 0.2 | > 128 | 128 | 128 | 28.4 | > 128 | 128
COc1ccc(CC(=O)Nc2cc[n+](CCCOc3ccc(C(=O)/C=C/c4ccccc4)cc3)cc2)cc1.[Br-] | 16 | 16 | 16 | 128 | 8 | 90.5 | 128 | 8 | 64 | 724 | > 128 | 128
CCCCCC[N+](C)(C)CCCOc1ccc(C(=O)/C=C/c2ccccc2)cc1.[Br-] | 16 | 16 | 16 | 8 | 4 | 3.1 | > 128 | 16 | 64 | 49.6 | > 128 | 64
CC(C)=CC(=O)Nc1cc[n+](CCCOc2ccc(C(=O)/C=C/c3ccccc3)cc2)cc1.[Br-] | > 128 | > 128 | > 128 | > 128 | > 128 | > 10 | > 128 | > 128 | > 128 | > 1280 | > 128 | > 128
CCCCCCCC(=O)Nc1cc[n+](CCCOc2ccc(C(=O)/C=C/c3ccccc3)cc2)cc1.[Br-] | 4 | 2 | 2 | 8 | 2 | 443 | 32 | 2 | 16 | 887 | > 128 | 128
CCCC[N+](C)(C)CCCCCCCOc1ccc(C(=O)/C=C/c2ccccc2)cc1.[Br-] | 32 | 32 | 16 | 16 | 8 | 16.3 | > 128 | 8 | 32 | 130 | > 128 | 64
CCCCCCCCCCCC[N+](C)(C)CCCOc1ccc(/C=C/C(=O)c2ccc(OCCC[N+](C)(C)CCCCCCCCCCCC)cc2)cc1.[Br-].[Br-] | > 128 | > 128 | 16 | 64 | 16 | < 0.2 | > 128 | > 128 | > 128 | 21.2 | > 128 | > 128
CCCCCCCCCCCC(=O)Nc1cc[n+](CCCOc2ccc(C(=O)/C=C/c3ccccc3)cc2)cc1.[Br-] | 8 | > 128 | 8 | 128 | 8 | 47.1 | > 128 | 16 | > 128 | 753 | > 128 | > 128
CCCCCCCCCC[N+](C)(C)CCCCCCCOc1ccc(C(=O)/C=C/c2ccccc2)cc1.[Br-] | 8 | 4 | 8 | 4 | 4 | 12.6 | > 128 | 4 | 32 | 50.5 | > 128 | 128
CCCCCCCCCCNC(=O)C[N+](C)(C)CCCOc1ccc(/C=C/C(=O)c2ccc(OCCC[N+](C)(C)CC(=O)NCCCCCCCCCC)cc2)cc1.[Br-].[Br-] | > 128 | 32 | 16 | 64 | 32 | 1 | > 128 | 64 | > 128 | 66.1 | > 128 | 128
CCCCCC[N+](C)(C)CCCCCCCOc1ccc(C(=O)/C=C/c2ccccc2)cc1.[Br-] | 4 | 2 | 4 | 2 | 2 | 15.4 | > 128 | 4 | 16 | 61.6 | > 128 | 16
CCCCCCCCOc1cc[n+](CCCOc2ccc(/C=C/C(=O)c3ccc(OCCC[n+]4ccc(OCCCCCCCC)cc4)cc3)cc2)cc1.[Br-].[Br-] | 64 | 64 | 64 | 32 | 64 | 5.6 | 128 | 32 | 64 | 180 | 128 | 128
CCCCCCCCCCCCNC(=O)C[N+](C)(C)CCCOc1ccc(/C=C/C(=O)c2ccc(OCCC[N+](C)(C)CC(=O)NCCCCCCCCCCCC)cc2)cc1.[Br-].[Br-] | > 128 | 128 | > 128 | > 128 | > 128 | < 5.5 | > 128 | > 128 | > 128 | 703 | > 128 | > 128
O=C(Cc1ccc(-c2ccccc2)cc1)Nc1cc[n+](CCCOc2ccc(C(=O)/C=C/c3ccccc3)cc2)cc1.[Br-] | > 128 | > 128 | 128 | > 128 | > 128 | > 10 | > 128 | > 128 | > 128 | > 1280 | > 128 | > 128
CCCCCCCC[N+](C)(C)CCCOc1ccc(C(=O)/C=C/c2ccccc2)cc1.[Br-] | 8 | 2 | 4 | 1 | 1 | 17.2 | 64 | 1 | 4 | 17.2 | 64 | 8
O=C(CC12CC3CC(CC(C3)C1)C2)Nc1cc[n+](CCCOc2ccc(C(=O)/C=C/c3ccccc3)cc2)cc1.[Br-] | 64 | 64 | 64 | 64 | 32 | 5.5 | > 128 | 128 | > 128 | 708 | > 128 | > 128
